Publication PMC6930500, “Structure–Activity Relationships of 7-Substituted Dimethyltyrosine-Tetrahydroisoquinoline Opioid Peptidomimetics” (Molecules, 2019)
pEC50, pKi: −log10 of the molar value.

What was measured:
human KOR [1] = biological target: T1, human KOR (Homo sapiens, UniProt P41145); experiment: [3H]-diprenorphine competitive displacement binding, KOR; conditions: membranes from CHO cells expressing human KOR; mean (SEM), n>=3 in duplicate
T1 construct: expressed in transfected cells; cell lines provided by Professor Lawrence Toll
Protocol: (§1) Each novel compound was evaluated for binding to and stimulation of KOR, MOR, and DOR. Binding affinity (Ki) was determined by competitive displacement of [^3H]-diprenorphine, a non-selective opioid receptor antagonist with similar affinity for each of the three receptors. Potency (EC50) and efficacy, expressed as percent stimulation compared to a standard agonist at each receptor, were determined by a [^35S]-GTPγS binding assay.
(§2) Membranes prepared from transfected Chinese Hamster Ovary cells stably expressing human KOR, human MOR, or human DOR were used for all assays. Cells were grown to confluence at 37 °C in 5% CO2 in 1:1 DMEM:F12 media with 10% v/v fetal bovine serum and 5% v/v penicillin/streptomycin. Membranes were prepared by washing confluent cells three times with ice cold phosphate-buffered saline (0.9% NaCl, 0.61 mM Na2HPO4, 0.38 mM KH2PO4, pH 7.4). Cells were detached from the plates by incubation in warm harvesting buffer (20 mM HEPES, 150 mM NaCl, 0.68 mM EDTA, pH 7.4) and pelleted by centrifugation at 200× g for 3 min. The cell pellet was suspended in ice-cold 50 mM Tris-HCl buffer, pH 7.4 and homogenized with a Tissue Tearor (Biospec Products, Inc, distributed by Cole-Parmer, Vernon Hills, IL, USA) for 20 s at setting 4. The homogenate was centrifuged at 20,000× g for 20 min at 4 °C, and the pellet was rehomogenized in 50 mM Tris-HCl pH 7.4 with a Tissue Tearor for 10 s at setting 2, followed by recentrifugation. The final pellet was resuspended in 50 mM Tris-HCl pH 7.4 and frozen in aliquots at −80 °C. Protein concentration was determined via Pierce BCA protein assay kit using bovine serum albumin as the standard.
(§3) Binding affinities for all test compounds at KOR, MOR, and DOR were determined by competitive displacement of [^3H]-diprenorphine as previously reported. In a 96-well plate format, cell membranes (5–10 µg of protein) and [^3H]-diprenorphine (0.2 nM) were incubated in Tris-HCl buffer (50 mM, pH 7.4) with various concentrations of test compound at 25 °C for 1 h, allowing the mixture to reach equilibrium. Nonspecific binding was determined using the opioid antagonist naloxone (10 µM), and total binding was determined using vehicle in the absence of competitive ligand. After incubation, membranes were filtered through Whatman GF/C 1.2 micron glass fiber filters and washed with 50 mM Tris-HCl buffer. The radioactivity remaining on the filters was then quantified by liquid scintillation counting after saturation with EcoLume liquid scintillation cocktail in a Microbeta 2450 (Perkin-Elmer, Waltham, MA, USA). Binding affinity (Ki) values were calculated using the Cheng–Prusoff equation via nonlinear regression analysis using GraphPad Prism software from at least three separate binding assays performed in duplicate.

human MOR [2] = biological target: T2, human MOR (Homo sapiens, UniProt P35372); experiment: [3H]-diprenorphine competitive displacement binding, MOR; conditions: membranes from CHO cells expressing human MOR; mean (SEM), n>=3 in duplicate
T2 construct: expressed in transfected cells; cell lines provided by Professor Lawrence Toll
Protocol: as §1, §2, §3

human DOR [3] = biological target: T3, human DOR (Homo sapiens, UniProt P41143); experiment: [3H]-diprenorphine competitive displacement binding, DOR; conditions: membranes from CHO cells expressing human DOR; mean (SEM), n>=3 in duplicate
T3 construct: expressed in transfected cells; cell lines provided by Professor Lawrence Toll
Protocol: as §1, §2, §3

human KOR [4] = biological target: T1, human KOR; experiment: [35S]-GTPγS binding stimulation, KOR; type: biochemical; conditions: mean (SEM)
Protocol: as §1, §2
(§4) Agonist stimulation of KOR, MOR, and DOR by all test compounds was determined by [^35S]-guanosine 5′-O-[γ-thio]triphosphate ([^35S]-GTPγS) binding assays as previously reported. In a 96-well plate format, membranes from cells expressing opioid receptors as described above (10 µg of protein), [^35S]-GTPγS (0.1 nM), and guanosine diphosphate (30 µM) were incubated in GTPγS buffer (50 mM Tris-HCl, 100 mM NaCl, 5 mM MgCl2, 1 mM EDTA, pH 7.4) with various concentrations of test compound at 25 °C for 1 h. Basal stimulation was determined by incubation in the absence of any ligand. After incubation, membranes were filtered through Whatman GF/C 1.2 micron glass fiber filters and washed with GTPγS buffer with no EDTA. The radioactivity remaining on the filters was then quantified by liquid scintillation counting after saturation with EcoLume liquid scintillation cocktail in a Perkin-Elmer Microbeta 2450. Data are reported as percent stimulation compared to the effects of 10 µM standard agonists—U69,593 (KOR), DAMGO (MOR), or DPDPE (DOR). Percent stimulation and EC50 values were determined via nonlinear regression analysis using GraphPad Prism software from at least three separate assays performed in duplicate. Efficacy is expressed as percent stimulation relative to standard agonists.

human MOR [5] = biological target: T2, human MOR; experiment: [35S]-GTPγS binding stimulation, MOR; type: biochemical; conditions: mean (SEM), * n = 2; for pEC50: CHO-human MOR membranes, dns = does not stimulate, average maximal stimulation <10% at up to 10 µM; for Emax: versus 10 µM standard agonist DAMGO, dns = average maximal stimulation <10% at up to 10 µM
Protocol: as §1, §2, §4

human DOR [6] = biological target: T3, human DOR; experiment: [35S]-GTPγS binding stimulation, DOR; type: biochemical; conditions: mean (SEM), * n = 2; for EC50 DOR: CHO-human DOR membranes, dns = does not stimulate, average maximal stimulation <10% at up to 10 µM; for % Stimulation DOR: versus 10 µM standard agonist DPDPE, dns = average maximal stimulation <10% at up to 10 µM
Protocol: as §1, §2, §4

[7] = CHO-human KOR membranes, * n = 2, dns = does not stimulate, average maximal stimulation <10% at up to 10 µM
[8] = versus 10 µM standard agonist U69,593, dns = average maximal stimulation <10% at up to 10 µM

How did the pKi (human KOR [1]) turn out when `Cc1cc(O)cc(C)c1C[C@H](N)C(=O)N1CCc2ccc(Cc3cccc4ccccc34)cc2C1` [Compound 8o, (S)-2-amino-3-(4-hydroxy-2,6-dimethylphenyl)-1-(7-(naphthalen-1-ylmethyl)-3,4-dihydroisoquinolin-2(1H)-yl)propan-1-one] was run?
Its pKi is 8.33.

What about the pKi (human MOR [2]) of the same compound?
The pKi was 8.28.

And the pKi (human DOR [3])?
Its pKi is 8.49.

And the pEC50 (human KOR [4]; [7])?
Its pEC50 is 6.46.

What about the Emax (human KOR [4]; [8]) of the same compound?
Its Emax is 83%.

And the pEC50 (human MOR [5])?
The pEC50 was 6.88.

And the Emax (human MOR [5])?
The Emax was 59%.

And the “EC50 DOR” value (human DOR [6])?
The value was “dns”.

What about the “% Stimulation DOR” value (human DOR [6]) of the same compound?
Its value is “dns”.

`Cc1cc(O)cc(C)c1C[C@H](N)C(=O)N1CCc2ccc(CN3CCOCC3)cc2C1` [Compound 8n, (S)-2-amino-3-(4-hydroxy-2,6-dimethylphenyl)-1-(7-(morpholinomethyl)-3,4-dihydroisoquinolin-2(1H)-yl)propan-1-one] was tested. Which pKi (human KOR [1]) did it give?
The pKi was 7.37.

What about the pKi (human MOR [2]) of the same compound?
Its pKi is 7.41.

And the pKi (human DOR [3])?
Its pKi is 8.25.

And the “EC50 KOR” value (human KOR [4]; [7])?
The value was “dns”.

What about the “% Stimulation KOR” value (human KOR [4]; [8]) of the same compound?
The value was “dns”.

What about the pEC50 (human MOR [5]) of the same compound?
The pEC50 was 6.07.

And the Emax (human MOR [5])?
Its Emax is 38%.

And the “EC50 DOR” value (human DOR [6])?
The value was “dns”.

And the “% Stimulation DOR” value (human DOR [6])?
The value was “dns”.
